# Reference: ChEMBL document CHEMBL1201862, “PubChem BioAssay data set” (2004)
# Active and inactive are the calls of the source.
# Tests used:
# [1] = biological target: T1, Heat shock factor protein 1 (Mus musculus, UniProt P38532); assay: inhibition of MG132-induced HSE-luciferase signal, confirmation, cell-based, NIH3T3, luminescence, dose retest (AID 2382); type: functional;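 further: NIH3T3 fibroblasts with HSF1-driven luciferase reporter stressed by proteasome inhibitor MG132; luminescence from HSF1-driven luciferase expression after 8 hours of MG132 stress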
# T1 sequence (P38532 whole entry): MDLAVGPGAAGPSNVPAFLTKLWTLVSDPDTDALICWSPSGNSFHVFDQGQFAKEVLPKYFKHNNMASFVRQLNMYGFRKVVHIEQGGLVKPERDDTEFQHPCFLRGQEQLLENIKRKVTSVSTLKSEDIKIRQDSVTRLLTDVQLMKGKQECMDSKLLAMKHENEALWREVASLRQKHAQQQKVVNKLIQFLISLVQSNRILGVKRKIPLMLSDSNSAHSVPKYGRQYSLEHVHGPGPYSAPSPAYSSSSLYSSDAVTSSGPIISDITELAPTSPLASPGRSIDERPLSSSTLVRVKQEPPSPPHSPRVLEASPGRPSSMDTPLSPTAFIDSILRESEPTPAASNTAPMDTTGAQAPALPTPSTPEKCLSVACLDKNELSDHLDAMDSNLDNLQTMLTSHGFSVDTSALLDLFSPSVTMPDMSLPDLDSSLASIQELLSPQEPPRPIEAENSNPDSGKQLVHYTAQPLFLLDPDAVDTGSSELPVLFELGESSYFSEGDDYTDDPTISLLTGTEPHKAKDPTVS
# [2] = Luminescence Cell-Based Dose Confirmation HTS to Identify Activators of 5'UTR Stem-Loop Driven Alpha-Synuclein mRNA Translation in H4 Neuroglioblastoma Cells. [Related pubchem assays: 1829 (Project Summary), 1814 (Primary HTS)]; type: functional
# [3] = biological target: Cytochrome P450 2C9 (Homo sapiens, UniProt P11712)
# Chain of Cytochrome P450 2C9 (P11712 whole entry): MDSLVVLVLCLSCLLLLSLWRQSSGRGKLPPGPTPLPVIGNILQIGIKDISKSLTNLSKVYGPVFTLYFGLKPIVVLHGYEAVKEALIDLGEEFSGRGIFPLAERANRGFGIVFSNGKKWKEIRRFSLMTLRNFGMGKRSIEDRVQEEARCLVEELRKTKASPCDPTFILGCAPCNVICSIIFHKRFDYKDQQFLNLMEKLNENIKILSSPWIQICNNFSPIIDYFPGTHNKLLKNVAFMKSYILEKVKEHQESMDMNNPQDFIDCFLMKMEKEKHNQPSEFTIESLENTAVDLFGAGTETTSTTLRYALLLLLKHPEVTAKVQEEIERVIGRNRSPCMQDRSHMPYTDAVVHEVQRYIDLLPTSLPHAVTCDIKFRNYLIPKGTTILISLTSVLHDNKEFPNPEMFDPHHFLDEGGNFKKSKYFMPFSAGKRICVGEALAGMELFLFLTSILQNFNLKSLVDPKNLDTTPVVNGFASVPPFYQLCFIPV
# [4] = biological target: Cytochrome P450 2C19 (Homo sapiens, UniProt P33261); assay: Cytochrome panel assay with activity outcomes. Panel member name: p450-cyp2c19 Compounds with AC50 equal or less than 10 uM are considered active; type: functional
# Chain of Cytochrome P450 2C19 (P33261 whole entry): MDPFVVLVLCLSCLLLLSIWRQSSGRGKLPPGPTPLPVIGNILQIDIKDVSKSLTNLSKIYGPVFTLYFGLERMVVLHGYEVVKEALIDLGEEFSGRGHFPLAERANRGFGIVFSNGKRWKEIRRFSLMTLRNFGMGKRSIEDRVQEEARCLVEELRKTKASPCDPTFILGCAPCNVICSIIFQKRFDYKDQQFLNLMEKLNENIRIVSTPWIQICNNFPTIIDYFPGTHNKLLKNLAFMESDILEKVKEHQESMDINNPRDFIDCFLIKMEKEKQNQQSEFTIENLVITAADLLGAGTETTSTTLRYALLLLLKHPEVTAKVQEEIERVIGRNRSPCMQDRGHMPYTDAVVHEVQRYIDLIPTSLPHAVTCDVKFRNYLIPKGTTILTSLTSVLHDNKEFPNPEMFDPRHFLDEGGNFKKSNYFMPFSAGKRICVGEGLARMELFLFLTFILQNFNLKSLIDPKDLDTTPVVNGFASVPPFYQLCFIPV
# [5] = Luminescence Cell-Based Dose Response HTS to Identify Activators of Luciferase Translation or Activity in H4 […] Cells. [Related pubchem assays: 1829 (Project Summary), 1814 (Primary HTS)]; type: functional
# [6] = test system: H4; assay: Luminescence Cell-Based Dose Response HTS to Identify Activators of 5'UTR Stem-Loop Driven Prion Protein mRNA Translation in H4 Neuroglioblastoma Cells. [Related pubchem assays: 1829 (Project Summary), 1814 (Primary HTS)]; type: functional; conditions: Homo sapiens
# [7] = biological target: Paired box protein Pax-8 (Homo sapiens, UniProt Q06710); assay: inhibitors of PAX8-driven TPO luciferase reporter, dose response, RMG-I cells, cherry-pick (AID 687027); type: functional, cell-based;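 further: luciferase reporter driven by Pax8 target thyroperoxidase promoter measured by SteadyGlo luminescence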
# Chain of Paired box protein Pax-8 (Q06710 whole entry, the tested form may be a part): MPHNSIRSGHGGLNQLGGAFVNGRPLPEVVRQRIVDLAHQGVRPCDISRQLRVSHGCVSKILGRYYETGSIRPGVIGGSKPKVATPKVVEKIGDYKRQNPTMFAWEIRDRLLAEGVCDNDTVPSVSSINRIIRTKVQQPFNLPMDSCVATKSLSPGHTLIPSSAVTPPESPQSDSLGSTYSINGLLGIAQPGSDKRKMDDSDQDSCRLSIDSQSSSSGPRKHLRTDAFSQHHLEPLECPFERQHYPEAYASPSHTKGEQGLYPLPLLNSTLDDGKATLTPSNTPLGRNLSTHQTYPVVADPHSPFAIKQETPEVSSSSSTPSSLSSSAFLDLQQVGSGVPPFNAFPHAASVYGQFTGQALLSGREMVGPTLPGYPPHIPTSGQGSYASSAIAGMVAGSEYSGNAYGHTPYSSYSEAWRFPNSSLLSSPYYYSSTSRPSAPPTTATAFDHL
# [8] = biological target: T2, RNA-binding protein pos-1 (Caenorhabditis elegans, UniProt G5EF15); assay: inhibitors of POS-1/mex-3 RNA binding, dose response, biochemical, fluorescence polarization (AID 1964);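 further: purified POS-1 fused to maltose binding protein made in E. coli; potency of compounds blocking POS-1 binding to fluorescent RNA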
# T2 sequence (G5EF15 whole entry): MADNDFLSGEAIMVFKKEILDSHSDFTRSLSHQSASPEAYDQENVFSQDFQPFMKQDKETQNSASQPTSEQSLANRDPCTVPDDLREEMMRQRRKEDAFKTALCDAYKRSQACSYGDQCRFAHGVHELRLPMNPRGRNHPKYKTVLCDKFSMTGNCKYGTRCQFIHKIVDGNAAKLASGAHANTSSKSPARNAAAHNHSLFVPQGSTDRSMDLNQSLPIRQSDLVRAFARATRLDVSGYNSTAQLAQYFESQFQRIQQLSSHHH
# [9] = biological target: T3, Zinc finger protein mex-5 (Caenorhabditis elegans, UniProt Q9XUB2); assay: MEX-5/TCR-2 RNA interaction inhibitors, dose response, biochemical, C. elegans, fluorescence polarization (AID 1960)
# T3 sequence (Q9XUB2 whole entry): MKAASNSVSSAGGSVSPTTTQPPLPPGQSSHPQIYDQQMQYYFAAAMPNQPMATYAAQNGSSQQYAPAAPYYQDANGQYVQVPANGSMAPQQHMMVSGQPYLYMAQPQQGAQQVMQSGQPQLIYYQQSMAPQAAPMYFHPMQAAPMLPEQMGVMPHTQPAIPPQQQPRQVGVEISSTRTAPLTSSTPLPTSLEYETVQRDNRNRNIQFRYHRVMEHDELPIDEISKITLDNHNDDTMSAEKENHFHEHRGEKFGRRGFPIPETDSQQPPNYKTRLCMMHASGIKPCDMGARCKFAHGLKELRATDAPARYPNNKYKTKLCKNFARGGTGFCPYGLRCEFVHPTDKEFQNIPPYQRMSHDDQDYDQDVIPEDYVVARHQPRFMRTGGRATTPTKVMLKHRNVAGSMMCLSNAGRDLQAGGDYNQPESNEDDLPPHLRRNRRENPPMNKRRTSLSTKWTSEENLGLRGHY
# [10] = biological target: T4, Cytochrome P450 1A2 (Homo sapiens, UniProt P05177);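 further: PubChem cytochrome P450 panel assay, CYP1A2 panel member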
# T4 sequence (P05177 whole entry): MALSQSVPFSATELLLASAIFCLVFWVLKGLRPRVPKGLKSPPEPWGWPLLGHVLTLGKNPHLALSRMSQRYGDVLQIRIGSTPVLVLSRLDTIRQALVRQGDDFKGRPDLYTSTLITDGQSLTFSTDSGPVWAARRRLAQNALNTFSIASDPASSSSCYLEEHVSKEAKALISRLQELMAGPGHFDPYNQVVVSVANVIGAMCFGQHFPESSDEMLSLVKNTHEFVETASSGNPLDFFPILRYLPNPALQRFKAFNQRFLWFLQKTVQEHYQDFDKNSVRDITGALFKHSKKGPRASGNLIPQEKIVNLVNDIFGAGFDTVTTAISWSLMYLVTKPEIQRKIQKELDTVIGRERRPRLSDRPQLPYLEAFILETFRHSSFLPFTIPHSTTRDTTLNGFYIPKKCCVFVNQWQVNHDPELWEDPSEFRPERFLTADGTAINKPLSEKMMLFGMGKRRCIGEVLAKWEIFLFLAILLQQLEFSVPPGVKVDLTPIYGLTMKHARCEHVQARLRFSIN
# [11] = test system: H9c2; assay: cells; type: functional, cell-based; conditions: Rattus norvegicus, H9c2, Myocardium;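 further: confirmatory concentration-response retest of ultra-high-throughput screening hits for modulation of myocardial damage; cell death induced by hydrogen peroxide oxidative stress; compound pretreatment for 60 min then peroxide exposure for 2 h; potency is for protecting the cells against peroxide damage rather than for killing them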
# [12] = biological target: Cytochrome P450 2D6 (Homo sapiens, UniProt P10635);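 further: CYP2D6 member of a cytochrome P450 panel assay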
# Chain of Cytochrome P450 2D6 (P10635 whole entry): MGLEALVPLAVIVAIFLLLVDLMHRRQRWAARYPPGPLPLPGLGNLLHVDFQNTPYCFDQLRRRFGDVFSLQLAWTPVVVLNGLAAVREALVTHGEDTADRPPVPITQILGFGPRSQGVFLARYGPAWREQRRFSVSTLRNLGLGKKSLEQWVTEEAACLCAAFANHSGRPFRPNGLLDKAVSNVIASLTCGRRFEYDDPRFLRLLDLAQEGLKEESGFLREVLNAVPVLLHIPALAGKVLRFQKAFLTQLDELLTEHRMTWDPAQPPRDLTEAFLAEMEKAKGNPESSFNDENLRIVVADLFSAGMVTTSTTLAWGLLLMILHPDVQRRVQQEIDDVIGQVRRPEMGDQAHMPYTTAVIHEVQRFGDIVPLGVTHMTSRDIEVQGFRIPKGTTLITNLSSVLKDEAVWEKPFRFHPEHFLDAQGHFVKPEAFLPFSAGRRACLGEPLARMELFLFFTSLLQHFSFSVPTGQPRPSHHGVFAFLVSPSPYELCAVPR
smiles,measurement,setting,value
CCn1c(O)cc(=O)nc1SCC(=O)N1CCOCC1,EC50,[1],> 195 µM (not active)
Cc1ccc(Oc2nn[nH]n2)cc1,EC50,[2],> 120 µM (not active)
same,AC50,[3],7.08 µM (inconclusive)
same,AC50,[4],inconclusive
same,EC50,[5],> 120 µM (not active)
same,EC50,[6],> 120 µM (not active)
COc1cc(C2C3=C(COC3=O)OC(C)(C)Oc3cc4c(cc32)OCO4)cc(OC)c1OC (stereo not drawn),AC50,[7],1.78 µM (active)
Cc1ccc(N/C=C(/C#N)c2ccsc2)cc1,EC50,[2],46.7 µM (active)
same,EC50,[5],52.3 µM (active)
same,EC50,[6],68.4 µM (active)
CC(C)c1ccc(C2C(C#N)=C(N)N3C(=C2C#N)Sc2ccccc23)cc1 (stereo not drawn),EC50,[8],33 µM (inconclusive)
same,EC50,[9],61.3 µM (active)
same,AC50,[3],10 µM (inconclusive)
same,AC50,[4]; read-out: AC50,14.1 µM (inconclusive)
same,AC50,[10],25.1 µM (inconclusive)
COC(=O)c1ccc(C2OCC(C)(C)CO2)cc1,EC50,[2],> 120 µM (not active)
same,EC50,[5],35.1 µM (active)
same,EC50,[6],24.9 µM (active)
Cc1ccc(C(c2c(C)n(C)n(-c3ccccc3)c2=O)c2c(C)n(C)n(-c3ccccc3)c2=O)s1,IC50,[11],> 79 µM (inactive)
CCC(=O)Nc1c(-c2ccc(Cl)cc2)c(=O)c2ccccc2n1C,EC50,[1],> 195 µM (not active)
O=C(NCc1ccccc1C(F)(F)F)C12CN(Cc3ccccc3)CC1C(c1ccc([N+](=O)[O-])cc1)=NO2 (stereo not drawn),EC50,[1],> 195 µM (not active)
CC1CCCN(C(=O)C2CCN(S(=O)(=O)c3ccc4c(c3)CC(C)N4C(=O)C3CC3)CC2)C1 (stereo not drawn),EC50,[1],> 195 µM (not active)
Nc1cc2nc(O)c3ccccc3c2cc1Br,IC50,[11],> 79 µM (inactive)
C[C@@H]1CN([C@H](C)CO)C(=O)c2cc(NC(=O)c3ccncc3)ccc2O[C@@H](C)CCCCO[C@H]1CN(C)Cc1ccc(C(F)(F)F)cc1,AC50,[7],12 µM (active)
Brc1cc2c(cc1/C=N/Nc1nc(N3CCCC3)nc(N3CCOCC3)n1)OCO2,AC50,[10],15.8 µM (inconclusive)
same,AC50,[12],28.2 µM (inconclusive)
same,IC50,[11],> 79 µM (inactive)
COc1cccc(-c2cnc3c(NC=O)cc(-c4ccc(OC)cc4OC)cn23)c1,AC50,[7],2.93 µM (active)
O=C(CSCc1cccc(F)c1)N1CCN(c2ccccc2)CC1,EC50,[2],0.47 µM (active)
same,EC50,[5],6.73 µM (active)
same,EC50,[6],> 120 µM (not active)
N#CC(c1nc2ccccc2nc1OCCO)S(=O)(=O)c1ccccc1 (stereo not drawn),EC50,[8],> 300 µM (not active)
same,EC50,[9],142 µM (inconclusive)
COc1cc(C2C(C#N)=C(N)OC3=C2C(=O)CCC3)ccc1OC(=O)N1CCOCC1 (stereo not drawn),EC50,[8],> 300 µM (not active)
same,EC50,[9],> 300 µM (not active)
COC/C=C/C1=CC2=CC(=O)C(C)(OC(=O)c3cccs3)C(=O)C2=CO1 (stereo not drawn),EC50,[8],> 300 µM (not active)
same,EC50,[9],51.8 µM (active)
O=C(Oc1cc(=O)oc2c1c(=O)n1c3c(cccc23)CC1)c1ccc(F)cc1,EC50,[1],22.2 µM (active)
Cc1cc(NC(=O)CSc2nc3c(C)cccc3cc2C#N)no1,EC50,[2],47.9 µM (active)
same,EC50,[5],> 120 µM (not active)
same,EC50,[6],16.1 µM (active)
CC(=O)c1cccc(NC(=O)C(C)OC(=O)Cc2nnc(O)c3ccccc23)c1 (stereo not drawn),IC50,[11],> 79 µM (inactive)
O=C(c1ccco1)N1CCN(Cc2nc3ccc([N+](=O)[O-])cc3c(=O)n2-c2ccccc2F)CC1,IC50,[11],27.6 µM (active)
